The source of these data is PubChem BioAssay AID743464 (Broad Institute, 2014).

Activity calls are given as the source filed them.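 How the source made its calls: active means fitted curve of COX8b expression increase reaching level 40 at or below the top valid tested dose; inconclusive means flat fit between 30 and 70, or poor fit; inactive means the rest.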 A value given as a limit tells only on which side of the number the result lay.

Test system in the first experiment: not listed separately
The experiment in a line: change in PGC-1a target gene COX8b expression, dose response, C2C12 myotubes, RT-qPCR, cherry-pick (AID 743464). To be noted: C2C12 myotubes, COX8b mRNA qPCR (delta-delta-Ct); at 6.8 µM (top of the series). For orientation: In qPCR the cycle at which signal appears reflects the starting amount.
In the case of `N#Cc1cc(Oc2cccc3cccnc23)c(-n2nnc3ccccc32)cc1C#N`, the COX8b expression increase was -21.9 unspecified (inactive).

Staying with this experiment, now noted: C2C12 myotubes, COX8b mRNA qPCR (delta-delta-Ct); at 19.5 µM (top of the series).
Consider `COc1ccc(C(=O)Nc2cccc(NC(=O)c3ccc(OC)c(OC)c3)n2)cc1OC`, for which the COX8b expression increase was 7.85 unspecified (inactive).
With `C[C@H](CO)N1C[C@H](C)[C@@H](CN(C)C(=O)C2CCCCC2)Oc2cc(C#Cc3ccncc3)ccc2S1(=O)=O`, the COX8b expression increase is 9.62 unspecified (inactive).
Same read-out and setting: for `COCCSc1ccccc1C(=O)Nc1cc(C)on1` the value was 3.36 unspecified (inactive); for `Nc1ncnc(NCc2ccc(F)cc2)c1[N+](=O)[O-]`, 1.72 unspecified (inactive); for `Cc1ccc(-c2nc(NC(=O)c3nn(C)cc3[N+](=O)[O-])sc2C)cc1`, 8.83 unspecified (inactive).
The same measure, in the same setting: for `O=C(C[C@H]1CC[C@@H](NC(=O)c2ccccc2)[C@H](CO)O1)Nc1ccc(-c2ccccc2)cc1` the value was -12.4 unspecified (inactive).
On the same count and under the same terms, for `CC[C@H](C)[C@H](NC(=O)c1ccc(Cl)cc1)C(=O)OCC(=O)c1ccc2c(c1)NC(=O)CO2` the value was -1.89 unspecified (inactive).
For `Cc1nc2ccccn2c1C(=O)/C=C/c1ccc(F)cc1`, the COX8b expression increase was -3.59 unspecified (inactive).
Regarding `Cc1nc(Nc2ccc(S(N)(=O)=O)cc2)sc1C(=O)Nc1ccccc1`, the COX8b expression increase is -1.19 unspecified (inactive).
With `CCN1CCN(Cc2ccc(NC(=O)c3cc(NC(=O)c4cncc(-c5ccc(C#N)cc5)c4)cc(OC)c3)cc2C(F)(F)F)CC1`, the COX8b expression increase is -3 unspecified (inactive).
On the same count and under the same terms, for `C[C@H](CO)N1C[C@H](C)[C@@H](CN(C)Cc2cccnc2)Oc2cc(C#CC3CCCCC3)ccc2S1(=O)=O` the value was 0.89 unspecified (inactive).
Still for that read-out and setting: for `CC1=C(Cl)C2=NS(=O)(=O)CCN2C=C1Cl` the value was 6.22 unspecified (inactive); for `CS(=O)c1nc(-c2ccc(Br)cc2)cc(-c2ccccc2)c1C#N` (centres undefined), 6.29 unspecified (inactive); for `C[C@H]1CN([C@@H](C)CO)S(=O)(=O)c2ccc(-c3ccccc3)cc2O[C@@H]1CN(C)Cc1cccc(F)c1`, -3.3 unspecified (inactive).
In the case of `OC(c1cc(C(F)(F)F)nc2c(C(F)(F)F)cccc12)C1CCCCN1` (centres undefined), the COX8b expression increase is 1.68 unspecified (inactive).
Still for that read-out and setting: for `COc1ccccc1C#Cc1ccc([C@H]2[C@H](C#N)N(C(=O)C3CCCC3)[C@H]2CO)cc1` the value was 21.2 unspecified (inactive); for `O=c1[nH]c2ccccc2n1C1CCN(C(c2cc3ccccc3o2)c2nnnn2Cc2ccccc2)CC1` (centres undefined), 12.6 unspecified (inactive); for `Cc1cc(C)cc(OC(=O)CS(=O)c2ccc(C(F)(F)F)cc2[N+](=O)[O-])c1` (centres undefined), -6.23 unspecified (inactive).
On the same count and under the same terms, for `Cc1cc2c(c(/C=C/C(=O)c3ccccc3)c1)OC1(C=C2)Oc2ccccc2C(=O)N1C` (centres undefined) the value was 21.7 unspecified (inactive); for `CCN(CC(=O)NCc1ccc(Cl)cc1)C(=O)CSCC(=O)Nc1ccc(C)cc1`, 0.86 unspecified (inactive); for `Cn1nnnc1SCC(=O)NCc1cccc(C(=O)O)c1`, -7.14 unspecified (inactive).
For `CCN1CCN(Cc2ccc(NC(=O)c3ccc(C)c(NC(=O)c4c[nH]c5cc(C(F)(F)F)ccc5c4=O)c3)cc2C(F)(F)F)CC1`, the COX8b expression increase was 15.7 unspecified (inactive).
On the same count and under the same terms, for `Cc1ccccc1-n1nnnc1Sc1nnnn1-c1ccccc1` the value was 9.68 unspecified (inactive).
Same read-out and setting: for `O=c1cc(CSc2ccccn2)[nH]c(=O)[nH]1` the value was -6.81 unspecified (inactive); for `CCOc1cc(CNC2CCCC2)cc(Cl)c1OCc1ccc(F)cc1`, 0.737 unspecified (inactive).
On to `C#CCN(C[C@@H]1[C@@H](OC(=O)NCCCCCC)[C@@H](OC(=O)NCCCCCC)Cn2c(=O)ccc(=O)n21)S(=O)(=O)c1ccc(C)cc1`, for which the COX8b expression increase was 4.23 unspecified (inactive).
`COC(=O)c1nn(-c2ccccc2)ccc1=O`: the COX8b expression increase is 3.82 unspecified (inactive).

The next experiment has as its system C2C12 myotubes, COX8b mRNA qPCR (delta-delta-Ct). The experiment is described as above.
Conditions: not given
For `Cc1ccc(S(=O)(=O)N(C)C[C@H]2Oc3cc(C#Cc4ccncc4)ccc3S(=O)(=O)N([C@H](C)CO)C[C@H]2C)cc1`, the AC40 was 19.3 µM.
With `C=CS(=O)(=O)N(Cc1ccccc1Br)[C@H](CO)Cc1ccccc1`, the AC40 is > 19.5 µM (inactive).
With `CCCN(CC)c1ncnc2[nH]ncc12`, the AC40 was 17.5 µM.
With `CCOC(=O)c1c2c(n(C)c1C)C(=O)C(=O)c1ccc(Br)cc1-2`, the AC40 is 16.8 µM.
Still for that read-out and setting: for `Cc1cccc(NC(=O)CNC(=O)Cn2ncc(Cl)c(Cl)c2=O)c1C` the value was > 19.5 µM (inactive); for `Cc1ccc(S(=O)(=O)N(C)C[C@@H]2Oc3cc(C#Cc4ccncc4)ccc3S(=O)(=O)N([C@H](C)CO)C[C@H]2C)cc1`, > 19.5 µM (inactive); for `O=C(Nc1ccc(C(F)(F)F)cc1)N1C[C@@H]2N[C@H](C1)C2c1ccc(-c2ccccc2)cc1` (some centres undefined), > 19.5 µM (inactive).
As to `O=C(Nc1cccc(F)c1)N1CC(=O)N2[C@@H](CO)[C@@H](c3ccc(C#Cc4cccnc4)cc3)[C@@H]2C1`, the AC40 was > 19.5 µM (inactive).
As for `Cc1ccc(-c2ccc(C3[C@@H]4CN(C(=O)Nc5ccc(C(F)(F)F)cc5)C[C@H]3N4)cc2)cc1` (some centres undefined), the AC40 was > 19.5 µM (inactive).
Still for that read-out and setting: for `Cc1ccc(S(=O)(=O)N(C)C[C@@H]2Oc3cc(C#Cc4ccncc4)ccc3S(=O)(=O)N([C@@H](C)CO)C[C@H]2C)cc1` the value was > 19.5 µM (inactive); for `O=C(Nc1ccc(N2CCN(Cc3ccccc3F)CC2)cc1)c1ccc([N+](=O)[O-])o1`, 10.4 µM; for `COc1ccccc1-c1ccc([C@@H]2[C@@H]3CN(S(=O)(=O)c4ccc(-c5ccccc5)cc4)C[C@H]2N3)cc1`, > 19.5 µM (inactive).
For the molecule `CCn1nc(/C=C/c2ccccc2)nc2c(=O)n(C)c(=O)nc1-2`, the AC40 is 0.78 µM.
On to `Cc1ccc(Cn2ncc(Cl)c(Cl)c2=O)cc1`, for which the AC40 is > 19.5 µM (inactive).
The same measure, in the same setting: for `N#Cc1ccc(-c2ccc(C3[C@@H]4CN(S(=O)(=O)c5ccc(F)cc5)C[C@H]3N4)cc2)cc1` (some centres undefined) the value was > 19.5 µM (inactive); for `COc1ccccc1C#Cc1ccc2c(c1)O[C@@H](CN(C)Cc1cccnc1)[C@H](C)CN([C@H](C)CO)S2(=O)=O`, > 19.5 µM (inactive).
